Measured values reported in US9422493B2, “Tritylated alkyl aryl ethers” (Rohm and Haas Company, priority 2012, dated 2016).
Values belong to the compound of their own block, whether it stands above or below them.

What was measured:
Format in all cases: physicochemical
[1] = Solubility studies: 0.1 g marker candidate in 0.9 g solvent, solution stability at 60 C, room temperature and -10 C
Method: Solutions were made from 0.1 grams of marker candidate and 0.9 grams of solvent. The mixtures were warmed briefly to 60° C. to completely dissolve the marker candidate, then the solutions were cooled to room temperature. The solutions were then placed into a −10° C. freezer, and the stability of the solutions was monitored for at least 7 days.
DPGME is dipropylene glycol mono-methyl ether and NMP is N-methylpyrrolidone; AROMATIC 200 and AROMATIC 150 are mixed aromatic solvents available from Exxon Mobil Corp.

[2] = Stability and extractability of marker in xylenes solution against laundering agents, analysed by GC; conditions: 2000 mg/kg in xylenes, room temperature, 8 hours
[3] = Sunlight stability of marker solution, checked by GC
[4] = 75:25 Aromatic 200H: cyclohexanone
[5] = 75:25 Aromatic 200H: o-sec-butylphenol

SOLUBILITY BEHAVIOR −10 C. [1, 4]: sol 7D sol 7D
SOLUBILITY BEHAVIOR −10 C. [1, 5]: sol 7D sol 7D
SMILES: CCCCCCCCCCCCOc1c(C(C)CC)cc(C(c2ccccc2)(c2ccccc2)c2ccccc2)cc1C(C)CC (centres unmarked)

SOLUBILITY BEHAVIOR −10 C. [1, 4]: sol 7D sol 7D
SOLUBILITY BEHAVIOR −10 C. [1, 5]: sol 7D sol 7D
SMILES: CCCCCCCCCCCCOc1ccc(C(c2ccccc2)(c2ccccc2)c2ccccc2)cc1C(C)(C)C

SOLUBILITY BEHAVIOR −10 C. [1, 4]: sol 7D sol 7D
SOLUBILITY BEHAVIOR −10 C. [1, 5]: sol 7D sol 7D
SMILES: CCCCCCCCCCCCOc1c(C(C)(C)C)cc(C(c2ccccc2)(c2ccccc2)c2ccccc2)cc1C(C)(C)C

SOLUBILITY BEHAVIOR −10 C. [1, 4]: xtls 6D xtls 6D
SOLUBILITY BEHAVIOR −10 C. [1, 5]: xtls 6D xtls 6D
SMILES: CCCCCCCCCCCCOc1c(C(C)(C)C)cc(C(C)(C)C)cc1C(c1ccccc1)(c1ccccc1)c1ccccc1

SOLUBILITY BEHAVIOR −10 C. [1, 4]: sol 7D
SOLUBILITY BEHAVIOR −10 C. [1, 5]: xtls 3D
SMILES: CCCCCCCCCCCCOc1ccc(C(c2ccccc2)(c2ccccc2)c2ccccc2)cc1C(C)C

SOLUBILITY BEHAVIOR −10 C. [1, 4]: xtls 4D
SMILES: CCCCCCCCCCCCOc1c(C(C)C)cc(C(c2ccccc2)(c2ccccc2)c2ccccc2)cc1C(C)C

SMILES: CCCCCCCCCCOc1ccc(C(c2ccccc2)(c2ccccc2)c2ccccc2)cc1C(C)CC (centres unmarked) [DecTsBuPh]
% Change ([2]; 2% Charcoal): −0.76%
% Change ([2]; 5% Bleach): 1.08%
% Change ([2]; 5% H2SO4, 5% by weight): −0.04%
% Change ([2]; 5% NaOH, 5% by weight, GC vs stock solution): 0.10%
% Change ([2]; 50% NaOH, 5% by weight): 0.60%
% Change ([2]; 98% H2SO4, 5% by weight): −1.84%
% Change ([2]; Fuller's Earth): 0.79%
% Change ([2]; Iron Specks (2% metal specs wt/wt)): 1.76%
% Change ([3]; Apr. 5, 2012): −1.90%
% Change ([3]; Apr. 13, 2012): 2.40%
% Change ([3]; Apr. 23, 2012): 0.90%
% Change ([3]; May 8, 2012): −1.40%
% Change ([3]; May 15, 2012): 1.80%
[…] −10 C. ([1]; Aromatic 200): sol 33D
[…] −10 C. ([1]; DPGDME): sol 33D
